Data from PMC9631063, “Schisandrin B Attenuates Diabetic Cardiomyopathy by Targeting MyD88 and Inhibiting MyD88‐Dependent Inflammation” (Advanced Science, 2022).

Target: T1, rhMyD88(TIR) (Homo sapiens, UniProt Q99836)
T1 construct: gene MYD88; Results text calls it only rhMyD88
Assay: isothermal titration calorimetry (Nano-ITC)
Assay type: binding

T1 sequence (Q99836 159-296 limits assumed): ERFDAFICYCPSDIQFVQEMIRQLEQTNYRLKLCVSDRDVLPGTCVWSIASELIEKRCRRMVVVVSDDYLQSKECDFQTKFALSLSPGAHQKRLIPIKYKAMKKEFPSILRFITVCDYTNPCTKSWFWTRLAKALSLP

**Q.** With `COc1cc2c(c(OC)c1OC)-c1c(cc3c(c1OC)OCO3)CC(C)C(C)C2` (stereo not shown) [Schisandrin B] as the compound, how does the Kd read?
**A.** Its Kd is 125 µM.
